In paper PMC10786919, “Design-rules for stapled peptides with in vivo activity and their application to Mdm2/X antagonists” (Nature Communications, 2024):
Like-named read-outs stand apart in the source and are kept apart here. Positions of bridges follow the written chain, without caps; N, C: chain ends. Non-standard residues stand in square brackets, D forms with d. Residues, ends and D or L forms follow the SMILES beside them. R8 = C=CCCCCCC[C@@](C)(N)C(=O)O; R5 = C=CCCC[C@@](C)(N)C(=O)O; S5 = C=CCCC[C@](C)(N)C(=O)O; Ahx = NCCCCCC(=O)O

Experiments:
Assay type in all cases: cell-based
[1] = system: p53 responsive β-lactamase reporter in HCT116 cells; experiment: cells; settings: 0% FBS 4Hr
Experimental: HCT116 cells were stably transfected with a p53 responsive β-lactamase reporter and expanded in McCoy’s 5 A Medium with 10% fetal bovine serum (FBS), Blasticidin, and Penicillin/Streptomycin and then transferred to 1.5 ml freezing vials and stored under liquid nitrogen in growth media containing 5% DMSO. […] The cells were then seeded into a 384-well plate at a density of 8000 cells per well. […] The final working concentration of DMSO was 0.5%. β-lactamase activity was detected using the ToxBLAzer Dual Screen (Invitrogen), as per the manufacturer’s instructions. Measurements were made using the Envision multiplate reader (Perkin–Elmer). […] Measurements were taken a minimum of three times (biological replicates) and values are reported as geometric means of the replicates.

[2] = Lactate dehydrogenase (LDH) release assay; settings: LDH: Cytotoxicity assay EC50
How it was run: (§1)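 LDH release, fluorometric membrane-integrity read-out; HCT116 with stable p53-responsive β-lactamase reporter; 8000 cells/well; 0.5% DMSO final; geometric mean, n≥3 biological replicates.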

[3] = system: HCT116 cells; experiment: Lactate dehydrogenase (LDH) release assay
How it was run: as §1

[4] = read-out: p53 reporter assay EC50
[5] = read-out: p53 reporter assay: EC50

SMILES | EC50 [1, 4] [µM] | EC50 [2] [µM] | LDH: Cytotoxicity assay % Effect [3] [%] | EC50 [1, 5] [µM]
CC(=O)N[C@H](C(=O)N[C@@H](CO)C(=O)N[C@@H](Cc1ccccc1)C(=O)N[C@]1(C)CCCCCCC=CCCC[C@@](C)(C(N)=O)NC(=O)[C@H](CC(C)C)NC(=O)[C@H](CCCNC(=N)N)NC(=O)[C@H](Cc2ccc(O)cc2)NC(=O)[C@H](Cc2c[nH]c3ccccc23)NC(=O)[C@H](Cc2ccc(O)cc2)NC(=O)[C@H](CCC(=O)O)NC1=O)[C@@H](C)O [MP-033] (Ac-TSF[R8]EYWYRL[S5]-NH2; staple 4-11) | 13.6 | > 50 | 1.548 | 
CC(=O)N1CCC[C@H]1C(=O)N[C@@H](CCCNC(=N)N)C(=O)N[C@@H](Cc1ccccc1)C(=O)N[C@]1(C)CCCCCCC=CCCC[C@@](C)(C(N)=O)NC(=O)[C@H](CC(C)C)NC(=O)[C@H](CCCNC(=N)N)NC(=O)[C@H](CC(C)C)NC(=O)[C@H](Cc2c[nH]c3ccccc23)NC(=O)[C@H](Cc2ccc(O)cc2)NC(=O)[C@H](CCC(=O)O)NC1=O [MP-031] (Ac-PRF[R8]EYWLRL[S5]-NH2; staple 4-11) | 32.4 | > 50 | -3.388 | 
CC(=O)N[C@H](C(=O)N[C@@H](CO)C(=O)N[C@@H](Cc1ccccc1)C(=O)N[C@]1(C)CCCC=CCCCCCC[C@@](C)(C(N)=O)NC(=O)[C@H](CC(C)C)NC(=O)[C@H](CC(C)C)NC(=O)[C@H](C)NC(=O)[C@H](Cc2c[nH]c3ccccc23)NC(=O)[C@H](Cc2ccc(O)cc2)NC(=O)[C@H](CCC(=O)O)NC1=O)[C@@H](C)O [MP-035] | 8.8 | > 50 | 37.58 | 
CC(=O)N[C@@H](CCCCN)C(=O)N[C@@H](CCCCN)C(=O)NCCCCCC(=O)N[C@H](C(=O)N[C@@H](CO)C(=O)N[C@@H](CC(C)C)C(=O)N[C@]1(C)CCCCCCC=CCCC[C@@](C)(C(=O)N[C@@H](CCC(=O)O)C(=O)N[C@@H](CC(N)=O)C(=O)N[C@@H](Cc2ccccc2)C(N)=O)NC(=O)[C@H](Cc2c[nH]c3ccccc23)NC(=O)[C@H](CC(C)C)NC(=O)[C@H](C)NC(=O)[C@H](Cc2ccccc2)NC(=O)[C@H](Cc2ccc(O)cc2)NC(=O)[C@H](CCC(=O)O)NC1=O)[C@@H](C)O [MP-039] (Ac-KK[Ahx]TSL[R8]EYFALW[S5]ENF-NH2; staple 7-14) | > 50 | > 50 | 28.85 | 
CC(=O)N1CCC[C@H]1C(=O)N[C@@H](CCCNC(=N)N)C(=O)N[C@@H](Cc1ccccc1)C(=O)N[C@]1(C)CCCCCCC=CCCC[C@@](C)(C(=O)N[C@@H](CCC(=O)O)C(N)=O)NC(=O)[C@H](CC(C)C)NC(=O)[C@H](CCCNC(=N)N)NC(=O)[C@H](Cc2ccc(O)cc2)NC(=O)[C@H](Cc2c[nH]c3ccccc23)NC(=O)[C@H](Cc2ccc(O)cc2)NC(=O)[C@H](CCC(=O)O)NC1=O [MP-2030] (Ac-PRF[R8]EYWYRL[S5]E-NH2; staple 4-11) | 6.62 | > 50 | 32.25 | 
CC(=O)N[C@@H](CCCNC(=N)N)C(=O)NCCCCCC(=O)N[C@H](C(=O)N[C@@H](CO)C(=O)N[C@@H](Cc1ccccc1)C(=O)N[C@]1(C)CCCCCCC=CCCC[C@@](C)(C(=O)N[C@@H](CCC(=O)O)C(=O)N[C@@H](CC(N)=O)C(=O)N[C@@H](Cc2ccccc2)C(N)=O)NC(=O)[C@H](CC(C)C)NC(=O)[C@H](CC(C)C)NC(=O)[C@H](C)NC(=O)[C@H](Cc2c[nH]c3ccccc23)NC(=O)[C@H](Cc2ccc(O)cc2)NC(=O)[C@H](CCC(=O)O)NC1=O)[C@@H](C)O [MP-038] | 2.49 | > 50 | 5.515 | 
CC(=O)N[C@H](C(=O)N[C@@H](CO)C(=O)N[C@@H](Cc1ccccc1)C(=O)N[C@]1(C)CCCCCCC=CCCC[C@@](C)(C(N)=O)NC(=O)[C@H](CC(C)C)NC(=O)[C@H](CCCCN)NC(=O)[C@H](CC(C)C)NC(=O)[C@H](Cc2c[nH]c3ccccc23)NC(=O)[C@H](Cc2ccc(O)cc2)NC(=O)[C@H](CCC(=O)O)NC1=O)[C@@H](C)O [MP-034] (Ac-TSF[R8]EYWLKL[S5]-NH2; staple 4-11) | 12.8 | > 50 | 3.672 | 
CC(=O)N[C@@H](CCCNC(=N)N)C(=O)N[C@@H](CCCNC(=N)N)C(=O)NCCCCCC(=O)N[C@H](C(=O)N[C@@H](CO)C(=O)N[C@@H](Cc1ccccc1)C(=O)N[C@]1(C)CCCCCCC=CCCC[C@@](C)(C(=O)N[C@@H](CCC(=O)O)C(=O)N[C@@H](CC(N)=O)C(=O)N[C@@H](Cc2ccccc2)C(N)=O)NC(=O)[C@H](CC(C)C)NC(=O)[C@H](CC(C)C)NC(=O)[C@H](C)NC(=O)[C@H](Cc2c[nH]c3ccccc23)NC(=O)[C@H](Cc2ccc(O)cc2)NC(=O)[C@H](CCC(=O)O)NC1=O)[C@@H](C)O [MP-037] (Ac-RR[Ahx]TSF[R8]EYWALL[S5]ENF-NH2; staple 7-14) | 20.2 | > 50 | 3.464 | 
CC(=O)N[C@@H](CCCCN)C(=O)NCCCCCC(=O)N[C@H](C(=O)N[C@@H](CO)C(=O)N[C@@H](Cc1ccccc1)C(=O)N[C@]1(C)CCCCCC/C=C\CCC[C@@](C)(C(=O)N[C@@H](CCC(=O)O)C(=O)N[C@@H](CC(N)=O)C(=O)N[C@@H](Cc2ccccc2)C(N)=O)NC(=O)[C@H](CC(C)C)NC(=O)[C@H](CC(C)C)NC(=O)[C@H](C)NC(=O)[C@H](Cc2c[nH]c3ccccc23)NC(=O)[C@H](Cc2ccc(O)cc2)NC(=O)[C@H](CCC(=O)O)NC1=O)[C@@H](C)O [MP-2094] |  |  |  | 6.49
CC(=O)N[C@H](C(=O)N[C@@H](CO)C(=O)N[C@@H](Cc1ccccc1)C(=O)N[C@]1(C)CCCC=CCCC[C@](C)(C(=O)N[C@@H](CC(C)C)C(=O)N[C@@H](CC(C)C)C(=O)N2CCC[C@H]2C(=O)N[C@@H](CCC(=O)O)C(=O)N[C@@H](CC(N)=O)C(=O)N[C@@H](Cc2ccc(O)cc2)C(N)=O)NC(=O)[C@H](Cc2c[nH]c3ccccc23)NC(=O)[C@H](Cc2ccc(O)cc2)NC(=O)[C@H](CCC(=O)O)NC1=O)[C@@H](C)O [MP-2082] (Ac-TSF[R5]EYW[R5]LLPENY-NH2; staple 4-8) |  |  |  | 43
CC(=O)N[C@H](C(=O)N[C@@H](CO)C(=O)N[C@@H](Cc1ccccc1)C(=O)N[C@]1(C)CCCCCC/C=C\CCC[C@@](C)(C(N)=O)NC(=O)[C@H](CC(C)C)NC(=O)[C@H](CC(C)C)NC(=O)[C@H](C)NC(=O)[C@H](Cc2c[nH]c3ccccc23)NC(=O)[C@H](Cc2ccc(O)cc2)NC(=O)[C@H](CCC(=O)O)NC1=O)[C@@H](C)O [MP-2090] |  |  |  | 5.78
CC(=O)N[C@@H](CCCCN)C(=O)N[C@@H](CCCCN)C(=O)N[C@@H](CCCCN)C(=O)NCCCCCC(=O)N[C@H](C(=O)N[C@@H](CO)C(=O)N[C@@H](C)C(=O)N[C@]1(C)CCCCCCC=CCCC[C@@](C)(C(=O)N[C@@H](CCC(=O)O)C(=O)N[C@@H](CC(N)=O)C(=O)N[C@@H](Cc2ccccc2)C(N)=O)NC(=O)[C@H](CC(C)C)NC(=O)[C@H](CC(C)C)NC(=O)[C@H](C)NC(=O)[C@H](Cc2c[nH]c3ccccc23)NC(=O)[C@H](Cc2ccc(O)cc2)NC(=O)[C@H](CCC(=O)O)NC1=O)[C@@H](C)O [MP-070] (Ac-KKK[Ahx]TSA[R8]EYWALL[S5]ENF-NH2; staple 8-15) | > 50 |  |  | 
CC(=O)N[C@@H](CCCCN)C(=O)NCCCCCC(=O)N[C@H](C(=O)N[C@@H](CO)C(=O)N[C@@H](Cc1ccccc1)C(=O)N[C@]1(C)CCCCCCCCCCC[C@@](C)(C(=O)N[C@@H](CCC(=O)O)C(=O)N[C@@H](CC(N)=O)C(=O)N[C@@H](Cc2ccccc2)C(N)=O)NC(=O)[C@H](CC(C)C)NC(=O)[C@H](CC(C)C)NC(=O)[C@H](C)NC(=O)[C@H](Cc2c[nH]c3ccccc23)NC(=O)[C@H](Cc2ccc(O)cc2)NC(=O)[C@H](CCC(=O)O)NC1=O)[C@@H](C)O [MP-049] | 8.74 |  |  | 
CC(=O)N[C@@H](CCCCN)C(=O)N[C@@H](CCCCN)C(=O)N[C@@H](CO)C(=O)NCC(=O)N[C@@H](CO)C(=O)NCC(=O)N[C@H](C(=O)N[C@@H](CO)C(=O)N[C@@H](Cc1ccccc1)C(=O)N[C@]1(C)CCCCCCC=CCCC[C@@](C)(C(=O)N[C@@H](CCC(=O)O)C(=O)N[C@@H](CC(N)=O)C(=O)N[C@@H](Cc2ccccc2)C(N)=O)NC(=O)[C@H](CC(C)C)NC(=O)[C@H](CC(C)C)NC(=O)[C@H](C)NC(=O)[C@H](Cc2c[nH]c3ccccc23)NC(=O)[C@H](Cc2ccc(O)cc2)NC(=O)[C@H](CCC(=O)O)NC1=O)[C@@H](C)O [MP-052] (Ac-KKSGSGTSF[R8]EYWALL[S5]ENF-NH2; staple 10-17) | 12.9 |  |  | 
CC(=O)N[C@H](C(=O)N[C@@H](CO)C(=O)N[C@@H](Cc1ccccc1)C(=O)N[C@]1(C)CCCCCCC=CCCC[C@@](C)(C(=O)N[C@@H](CCC(=O)O)C(=O)N[C@@H](CC(N)=O)C(N)=O)NC(=O)[C@H](CC(C)C)NC(=O)[C@H](CC(C)C)NC(=O)[C@H](C)NC(=O)[C@H](Cc2c[nH]c3ccccc23)NC(=O)[C@H](Cc2ccc(O)cc2)NC(=O)[C@H](CCC(=O)O)NC1=O)[C@@H](C)O [MP-086] |  |  |  | 17.4
CC(=O)N[C@H](C(=O)N[C@@H](CO)C(=O)N[C@@H](Cc1ccccc1)C(=O)N[C@]1(C)CCCCCCC=CCCC[C@@](C)(C(=O)N[C@H](CCC(=O)O)C(=O)N[C@@H](CC(N)=O)C(=O)N[C@@H](Cc2ccccc2)C(N)=O)NC(=O)[C@H](CC(C)C)NC(=O)[C@H](CC(C)C)NC(=O)[C@H](C)NC(=O)[C@H](Cc2c[nH]c3ccccc23)NC(=O)[C@H](Cc2ccc(O)cc2)NC(=O)[C@H](CCC(=O)O)NC1=O)[C@@H](C)O [MP-092] |  |  |  | 6.33
